The source of these data is patent US20250163052A1, “cGAS INHIBITORS AND USES THEREOF” (Cornell University, priority 2022, published 2025).

Molecules are shown by their SMILES.

Data set [1] is described as follows: Metabolic stability in mouse liver microsomes.
In another data set the target is h-cGAS (Homo sapiens, UniProt Q8N884). Kind of data set: Cell-free human cGAS enzyme inhibition assay (ATP depletion, Kinase-Glo Max). In kind it is biochemical. As to conditions: human cGAS.
Data set [2] in a line: Metabolic stability in human liver microsomes.
The test system of the next data set is MEF2C target genes. Kind of data set: Single-nuclei RNA-seq of excitatory and inhibitory neurons, overlap with MEF2C target genes. It counts as in vivo, mouse. The note with it: P301S mice, 150 mg/kg diet for three months; snRNA-seq. As for the experimental part: Hippocampi isolation from frozen mouse hippocampi was adapted from a previous study with modifications (Grubman et al., 2019; Habib et al., 2017). All procedures were done on ice or at 4° C. In brief, post-mortem brain tissue was placed in 1500 μl of Sigma nuclei PURE lysis buffer (Sigma, NUC201-1KT) and homogenized with a Dounce tissue grinder (Sigma, D8938-1SET) with 20 strokes with pestle A and 15 strokes with pestle B. The homogenized tissue was filtered through a 35-μm cell strainer, then centrifuged at 600 g for 5 min at 4° C. and washed three times with 1 ml of PBS containing 1% BSA, 20 mM DTT and 0.2 U μl^−1 recombinant RNase inhibitor. […] The FACS-sorted suspension of DAPI-stained nuclei were counted and diluted to a concentration of 1000 nuclei per microliter in PBS containing 0.04% BSA. […]
Gene counts were obtained by aligning reads to the mm10 genome with Cell Ranger software (v.3.1.0) (10× Genomics). To account for unspliced nuclear transcripts, reads mapping to pre-mRNA were counted. […] We further removed genes expressed in no more than 2 cells, cells with unique gene counts over 4,000 or less than 200, and cells with high fraction of mitochondrial reads (>5%). […] To identify gene ontology and pathways enriched in the differentially expressed genes (DEGs), DEGS were analysed using (MSigDB) gene annotation database (Liberzon et al., 2011; Subramanian et al., 2005). […]

A short description of data set [3]: Protein binding in mouse brain homogenates. It counts as in vitro ADME.
The target in another data set is m-cGAS (Mus musculus, UniProt Q8C6L5). Briefly: Cell-free mouse cGAS enzyme inhibition assay (ATP depletion, Kinase-Glo Max). As to conditions: mouse cGAS. In kind it is biochemical.
Chain of m-cGAS (Q8C6L5 whole entry): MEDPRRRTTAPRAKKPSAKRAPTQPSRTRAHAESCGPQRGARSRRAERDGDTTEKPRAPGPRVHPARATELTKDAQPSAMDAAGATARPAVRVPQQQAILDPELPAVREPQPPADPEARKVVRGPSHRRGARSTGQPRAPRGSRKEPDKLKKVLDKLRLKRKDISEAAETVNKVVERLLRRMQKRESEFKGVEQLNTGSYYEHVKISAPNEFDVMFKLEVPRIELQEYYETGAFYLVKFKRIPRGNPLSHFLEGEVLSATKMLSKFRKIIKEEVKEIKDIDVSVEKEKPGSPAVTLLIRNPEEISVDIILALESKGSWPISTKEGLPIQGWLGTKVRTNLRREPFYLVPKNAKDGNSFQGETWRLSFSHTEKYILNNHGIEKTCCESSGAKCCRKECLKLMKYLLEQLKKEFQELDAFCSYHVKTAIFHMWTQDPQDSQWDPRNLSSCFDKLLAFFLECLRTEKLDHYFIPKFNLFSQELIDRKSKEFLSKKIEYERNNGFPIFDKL

Chain of h-cGAS (Q8N884 whole entry): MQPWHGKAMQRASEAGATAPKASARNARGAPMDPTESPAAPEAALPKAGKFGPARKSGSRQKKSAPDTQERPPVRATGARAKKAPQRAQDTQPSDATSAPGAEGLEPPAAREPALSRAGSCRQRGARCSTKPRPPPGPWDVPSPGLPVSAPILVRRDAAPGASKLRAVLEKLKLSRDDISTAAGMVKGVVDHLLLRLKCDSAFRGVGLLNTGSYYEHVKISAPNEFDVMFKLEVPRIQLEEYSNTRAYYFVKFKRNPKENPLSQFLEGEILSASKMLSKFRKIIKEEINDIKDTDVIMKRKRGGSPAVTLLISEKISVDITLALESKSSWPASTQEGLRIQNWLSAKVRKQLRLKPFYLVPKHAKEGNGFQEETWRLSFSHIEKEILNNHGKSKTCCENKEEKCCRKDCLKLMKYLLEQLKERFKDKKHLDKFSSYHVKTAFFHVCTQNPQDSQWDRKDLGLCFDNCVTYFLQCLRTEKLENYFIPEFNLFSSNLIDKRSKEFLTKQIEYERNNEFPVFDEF

As for `Cn1c2c(c3ccc(Cl)c(F)c31)CN(C(=O)CO)CC2` [TDI-6570, reference compound], the “Remaining (NCF = 60 min)” value in data set [1] (mouse liver microsomes, 60 min, no co-factor (no NADPH)) amounted to 100.0%; in data set [2] (human liver microsomes, 60 min, no co-factor (no NADPH)), 120.6%. Besides, the “Remaining (T = 60 min)” value in data set [1] (mouse liver microsomes, 60 min with NADPH) was determined as 0.0%; in data set [2] (human liver microsomes, 60 min with NADPH), 11.3%. In addition, the “CLint(liver)” value in data set [1] (mouse liver microsomes, scaled from CLint(mic)) came to 997.5 mL/min/kg; in data set [2] (human liver microsomes, scaled from CLint(mic)), 68.2 mL/min/kg. Besides, the “CLint(mic)” value stood at 251.9 µL/min/mg in data set [1] (mouse, liver microsomes) and 75.8 µL/min/mg in data set [2] (human, liver microsomes). Moreover, the “T½” value in data set [1] (mouse, liver microsomes) was 5.5 min; in data set [2] (human, liver microsomes), 18.3 min. The IC50 at h-cGAS was determined as 138 nM; on m-cGAS, 12.8 nM. For the same compound, the “Enrichment of MEF2C target genes in DEGs of excitatory and inhibitory neurons” value with MEF2C target genes is on record as “strong enrichment of MEF2C target genes”. For the same compound, in data set [3], the “% Recovery” value is 89.39%. In data set [3], this compound registered a LogK of 2.38. Also, the “% Remaining at 6 hr” value in data set [3] (6 hr) is 94.51%.
